Assay [1] concerns X-Aptamer 3 (DNA, aptamer, dU with phenol (tyrosine) at C5 (Y) at 18; dU with indole (tryptophan) at C5 (W) at 38) TTTTTTTCTAGAGATGTTTGTCTCAACGTGCCCTGCGTCGTGATCTTTTT
The assay is described as follows: SPR imaging, kinetic 1:1 fit. As to conditions: 10 mM PBS; pH 7.4, 4% acetonitrile, room temperature; 150 µM progesterone injected in screening.

Assay [2] concerns X-Aptamer 2 (DNA, aptamer, dU with phenol (tyrosine) at C5 (Y) at 18; dU with indole (tryptophan) at C5 (W) at 38) TTTTTTTCTAGCTTCGTTTGTCTCAACGTGCCCTGCGTCGTGATCTTTTT
As to the kind of experiment: SPR imaging, kinetic 1:1 fit. Conditions: 10 mM PBS; pH 7.4, 4% acetonitrile, room temperature; 150 µM progesterone injected in screening.

Assay [3] deals with X-Aptamer 9 (DNA, aptamer, dU with phenol (tyrosine) at C5 (Y) at 23; dU with indole (tryptophan) at C5 (W) at 36, 37 and 39) TTTTTTTCTAGCTTCCGTGAAATCAACGTGCCCTGTTATCGCTAGTTTTT
The assay is described as follows: SPR imaging, kinetic 1:1 fit. Conditions: 10 mM PBS; pH 7.4, 4% acetonitrile, room temperature; 150 µM progesterone injected in screening.

Assay [4] concerns X-Aptamer 8 (DNA, aptamer, dU with phenol (tyrosine) at C5 (Y) at 23; dU with indole (tryptophan) at C5 (W) at 37, 39 and 41) TTTTTTTCTAGCTTCCGTGAAATCAACGTGCCCTGGTATCTGATCTTTTT
As to the kind of experiment: SPR imaging, kinetic 1:1 fit. As to conditions: 10 mM PBS; pH 7.4, 4% acetonitrile, room temperature; 150 µM progesterone injected in screening.

Assay [5] relates to X-Aptamer 5 (DNA, aptamer, dU with phenol (tyrosine) at C5 (Y) at 23; dU with indole (tryptophan) at C5 (W) at 37 and 38) TTTTTTTCTAGCTTCCGTGAAATCAACGTGCCCTGGTTCGTCTAGTTTTT
The assay is described as follows: SPR imaging, kinetic 1:1 fit. Conditions: 10 mM PBS; pH 7.4, 4% acetonitrile, room temperature; 150 µM progesterone injected in screening.

For assay [6], the system named is X-Aptamer 7 (DNA, aptamer, dU with phenol (tyrosine) at C5 (Y) at 23; dU with indole (tryptophan) at C5 (W) at 36 and 37) TTTTTTTCTAGCTTCCGTGAAATCAACGTGACCTGTTTAGTGATCTTTTT
The assay is described as follows: SPR imaging, kinetic 1:1 fit. As to conditions: 10 mM PBS; pH 7.4, 4% acetonitrile, room temperature; 150 µM progesterone injected in screening.

Assay [7] has as its system X-Aptamer 6 (DNA, aptamer, dU with phenol (tyrosine) at C5 (Y) at 23; dU with indole (tryptophan) at C5 (W) at 37) TTTTTTTCTAGCTTCCGTGAAATCAACGTGCCCTGGTTAGTCTAGTTTTT
The assay is described as follows: SPR imaging, kinetic 1:1 fit. Conditions: 10 mM PBS; pH 7.4, 4% acetonitrile, room temperature; 150 µM progesterone injected in screening.

Assay [8] concerns X-Aptamer 5 (DNA, aptamer, dU with phenol (tyrosine) at C5 (Y) at 23; dU with indole (tryptophan) at C5 (W) at 37 and 38) TTTTTTTCTAGCTTCCGTGAAATCAACGTGCCCTGGTTCGTCTAGTTTTT
As to the kind of experiment: SPR imaging. As to conditions: 10 mM PBS; pH 7.4, 4% acetonitrile, room temperature; tested at 63 µg/mL.

For the molecule `CC(=O)[C@H]1CC[C@H]2[C@@H]3CCC4=CC(=O)CC[C@]4(C)[C@H]3CC[C@]12C`, the KD turned out to be 0.02174 ± 8.7e-05 nM in assay [1]; 0.04951 ± 9.9e-05 nM in assay [2]; 0.06186 ± 7.6e-05 nM in assay [3]; 0.04079 ± 7.6e-05 nM in assay [4]; 0.02558 nM in assay [5]; 0.14037 ± 6.4e-05 nM in assay [6]. Moreover, in assay [7], the KD is 0.05303 ± 6.1e-05 nM.
As to `C[C@]12CC[C@@H]3c4ccc(O)cc4CC[C@H]3[C@@H]1CC[C@@H]2O`, the binding result in assay [8] is “no”.

As usually defined, the KD is the constant that tells how readily two partners part at equilibrium. A high value points to weaker binding.

The record behind these values is PMC4877642 (2016).
